In patent US20200129583A1, “COMPOSITION FOR TREATING ACUTE URINARY RETENTION” (ANTEV LIMITED, priority 2018, published 2020):

Key:
[1] = system: male patients suffering from BPH; assay: Side effects with the use of Teverelix TFA; set-up: species or system human; settings: in vivo
Method: (§1) A phase II randomised, double blind, placebo-controlled, multi-centre, multi national study was conducted in order to investigate the use of an Teverelix TFA formulation in the composition according to the invention. In said study the International Prostate Symptom Score (I-PSS), the prostate volume, the urinary flow rate and the testosterone level in males suffering from BPH were evaluated.
(§2) Two single injections of Formulation A and Formulation A-placebo was administered s.c. at an interval of 48 hours to 81 male patients (41 on A and 40 on A-placebo) suffering from BPH.

[2] = system: male patients suffering from BPH; assay: International Prostate Symptom Score (I-PSS) in phase II placebo-controlled study; format: in vivo, human
Method: as §1
(§3) The Teverelix TFA formulation was reconstituted as follows. 0.8 ml 5% mannitol was added to 60 mg of the LHRH antagonist Teverelix trifluoroacetate. The mixture was stirred using vortex during one minute providing a dosage formulation of Teverelix TFA as a flowing milky pearly microcrystalline aqueous suspension. The suspension is made of microcrystals of about 10 μm length. Corresponding placebo formulations, without Teverelix TFA, were also prepared
(§4) Formulation A: 60 mg Teverelix TFA in 0.8 ml 5% mannitol
as §2
The International Prostate Symptom Score (I-PSS) is based on the answers to seven questions concerning urinary symptoms and one question concerning quality of life. Each question concerning urinary symptoms allows the patient to choose one out of six answers indicating increasing severity of the particular symptom. The answers are assigned points from 0 to 5. The total score can therefore range from 0 to 35 (asymptomatic to very symptomatic).

[3] = system: male patients suffering from BPH; assay: Urinary flow rate (Qmax) in phase II placebo-controlled study; format: in vivo, human; settings: two s.c. injections of 60 mg at an interval of 48 hours
Method: as §1, §3, §4, §2

[4] = system: male patients suffering from BPH; assay: Serum testosterone level in phase II placebo-controlled study; format: in vivo, human; settings: two s.c. injections of 60 mg at an interval of 48 hours; FIG. 4
Method: as §1, §3, §4, §2

[5] = system: male patients suffering from BPH; assay: Prostate volume in phase II placebo-controlled study; format: in vivo, human; settings: two s.c. injections of 60 mg at an interval of 48 hours
Method: as §1, §3, §4, §2

N-Ac-d-Nal^1, d-pCl-Phe^2, d-Pal^3, d-(Hci)^6, Lys(iPr)^8, d-Ala^10 trifluoroacetate [Teverelix TFA]
serious side effects [1]: no serious side effects | IPSS reduction ([2]; at 2 weeks): 12.6% | IPSS reduction ([2]; at 16 weeks): 33.9% | improvement in quality of life score (QoL) ([2]; at 16 weeks): 32.8% | time to improvement of symptoms (I-PSS) ([2]; two s.c. injections of 60 mg at an interval of 48 hours): within two weeks | improvement on I-PSS ([2]; two s.c. injections of 60 mg at an interval of 48 hours, 16-week study, FIG. 1): 39.9% | time to significant increase in the flow rate [3]: within the first two weeks | increase in maximum urinary flow rate (Qmax) ([3]; at 16 weeks): 43% | reduction in the testosterone level [4]: immediate reduction | time for testosterone level to return to baseline levels [4]: within eight weeks | time to prostate volume reduction after initiating therapy [5]: within four weeks | prostate volume decrease ([5]; FIG. 2): 11.5%
